Assay: Stability by differential scanning calorimetry (DSC)
Type: physicochemical
Conditions: FIG. 7
Method: In Example 9, the stability of the diglycidyl ether of Example 4B (cyclohexanone 2,6 methylene bis (2-furan, 5-methanol glycidyl ether)) was tested using differential scanning calorimetry (“DSC”).

Stability (stable up to): up to 180 °C
SMILES: O=C1/C(=C/c2ccc(COCC3CO3)o2)CCC/C1=C\c1ccc(COCC2CO2)o1 (stereo not shown) [Example 4B, cyclohexanone 2,6 methylene bis (2-furan, 5-methanol glycidyl ether)]

— patent publication US12723128B2, “Aromatic diol compounds, diepoxide compounds, polymers prepared from such compounds, and methods for making the same” (SWIMC LLC, priority 2020, dated 2026)
